Tests used:
[1] = target: T1, Protein farnesyltransferase (Homo sapiens, UniProt P49354+P49356); test: Inhibition of farnesyltransferase; type: protein-complex assay
Mus musculus [2] = test: Percent control tumor size in mouse xenograft assay (rat H-ras transformed fibroblasts) at 200 mg/kg peroral dose; type: functional; settings: route oral
Mus musculus [3] = test: Percent control tumor size in mouse xenograft assay (rat H-ras transformed fibroblasts) at 100 mg/kg peroral dose; type: functional; settings: route oral
[4] = Inhibition of geranylgeranyl transferase
[5] = Inhibitory activity against v-H-Ras gene transfected cell line; type: functional
[6] = target: T1, Protein farnesyltransferase; test: Inhibition of Farnesyltransferase; type: protein-complex assay

Row | IC50 [1] | IC50 [4] | IC50 [5] | IC50 [6] | Structure (SMILES) | Control (Mus musculus [2]) | Control (Mus musculus [3])
1 | 19 nM | 7700 nM | 39 nM |  | N#Cc1ccc(Cn2cncc2CNC2C(=O)N(c3cccc(Cl)c3)CCc3ccccc32)cc1 (racemic) | 43% | 70%
2 | 54 nM |  | 95 nM |  | N#Cc1ccc(Cn2cncc2CNC2C(=O)N(c3ccccc3)CCc3ccccc32)cc1 (centres undefined) |  | 
3 | 6 nM |  | 4 nM |  | N#Cc1ccc(Cn2cncc2CNC2Cc3ccccc3CN(Cc3cccc(Cl)c3)C2=O)cc1 (centres undefined) |  | 
4 | 23 nM |  | 92 nM |  | N#Cc1ccc(Cn2cncc2CNC2C(=O)N(Cc3ccccc3Cl)CCc3ccccc32)cc1 (centres undefined) |  | 
5 | 142 nM |  | 141 nM |  | N#Cc1ccc(Cn2cncc2CNC2Cc3ccccc3CN(Cc3ccc(Cl)cc3Cl)C2=O)cc1 (centres undefined) |  | 
6 | 17 nM |  | 6 nM |  | N#Cc1ccc(Cn2cncc2CNC2Cc3ccccc3CN(Cc3ccccc3)C2=O)cc1 (centres undefined) |  | 
7 | 6 nM |  | 15 nM |  | COc1cccc(N2Cc3ccccc3CC(NCc3cncn3Cc3ccc(C#N)cc3)C2=O)c1 (racemic) |  | 
8 | 18 nM |  | 47 nM |  | N#Cc1ccc(Cn2cncc2CNC2Cc3ccccc3CN(Cc3cc(F)cc(F)c3F)C2=O)cc1 (centres undefined) |  | 
9 | 26 nM |  | 379 nM |  | N#Cc1ccc(Cn2cncc2CNC2C(=O)N(Cc3cc(F)cc(F)c3)CCc3ccccc32)cc1 (centres undefined) |  | 
10 | 3 nM | 7100 nM | 4 nM |  | Cc1ccccc1CN1Cc2ccccc2CC(NCc2cncn2Cc2ccc(C#N)cc2)C1=O (centres undefined) | 57% | 76%
11 | 78 nM |  | 67 nM |  | N#Cc1ccc(Cn2cncc2CNC2C(=O)N(Cc3cccc(F)c3)CCc3ccccc32)cc1 (centres undefined) |  | 
12 | 8 nM |  | 16 nM |  | N#Cc1ccc(Cn2cncc2CNC2Cc3ccccc3CN(Cc3cc(F)cc(F)c3)C2=O)cc1 (centres undefined) |  | 
13 | 62 nM |  | 86 nM |  | N#Cc1ccc(Cn2cncc2CNC2C(=O)N(c3cc(F)cc(F)c3)CCc3ccccc32)cc1 (centres undefined) |  | 
14 | 10 nM |  | 6 nM |  | N#Cc1ccc(Cn2cncc2CNC2Cc3ccccc3CN(Cc3ccccc3Cl)C2=O)cc1 (centres undefined) |  | 
15 | 15 nM |  | 7 nM |  | N#Cc1ccc(Cn2cncc2CNC2Cc3ccccc3CN(c3cc(Cl)cc(Cl)c3)C2=O)cc1 (centres undefined) |  | 
16 | 1 nM | 25000 nM | 7 nM |  | N#Cc1ccc(Cn2cncc2CN[C@H]2Cc3ccccc3CN(c3cccc(Cl)c3)C2=O)cc1 | 35% | 60%
17 | 55 nM |  | 115 nM |  | N#Cc1ccc(Cn2cncc2CNC2Cc3ccccc3CN(Cc3ccc(F)cc3F)C2=O)cc1 (centres undefined) |  | 
18 | 10 nM |  | 40 nM |  | N#Cc1ccc(Cn2cncc2CNC2Cc3ccccc3CN(c3cc(F)cc(F)c3)C2=O)cc1 (centres undefined) |  | 
19 | 23 nM |  | 183 nM |  | N#Cc1ccc(Cn2cncc2CNC2C(=O)N(Cc3cccc(Cl)c3)CCc3ccccc32)cc1 (centres undefined) |  | 
20 | 9 nM |  | 39 nM |  | N#Cc1ccc(Cn2cncc2CNC2Cc3ccccc3CN(c3cccc(F)c3)C2=O)cc1 (racemic) |  | 
21 | 54 nM |  | 96 nM |  | Cc1ccccc1CN1CCc2ccccc2C(NCc2cncn2Cc2ccc(C#N)cc2)C1=O (centres undefined) |  | 
22 | 13 nM |  | 46 nM |  | N#Cc1ccc(Cn2cncc2CNC2Cc3ccccc3CN(c3cccc([N+](=O)[O-])c3)C2=O)cc1 (racemic) |  | 
23 | 15 nM |  | 5 nM |  | N#Cc1ccc(Cn2cncc2CNC2Cc3ccccc3CN(c3cccc(Br)c3)C2=O)cc1 (racemic) |  | 
24 |  |  | 19 nM | 32 nM | N#Cc1ccc(Cn2cncc2CNC2C(=O)N(c3cc(Cl)cc(Cl)c3)CCc3ccccc32)cc1 (centres undefined) |  | 
25 | 22 nM |  | 60 nM |  | N#Cc1ccc(Cn2cncc2CNC2C(=O)N(Cc3cccc(Br)c3)CCc3ccccc32)cc1 (centres undefined) |  | 
26 | 26 nM |  | 36 nM |  | N#Cc1ccc(Cn2cncc2CNC2Cc3ccccc3CN(c3ccccc3)C2=O)cc1 (racemic) |  | 
27 | 8 nM |  | 10 nM |  | N#Cc1ccc(Cn2cncc2CN[C@H]2CCCCN(Cc3ccccc3)C2=O)cc1 |  | 
28 | 19 nM |  | 16 nM |  | N#Cc1ccc(Cn2cncc2CN[C@H]2Cc3ccccc3CN(c3ccccc3)C2=O)cc1 |  | 
29 | 4 nM |  | 16 nM |  | N#Cc1ccc(Cn2cncc2CNC2Cc3ccccc3CN(c3cccc(Cl)c3)C2=O)cc1 (racemic) |  | 
30 | 47 nM |  | 26 nM |  | N#Cc1ccc(Cn2cncc2CNC2Cc3ccccc3CN(CC3CCCCC3)C2=O)cc1 (centres undefined) |  | 
